Data as given in patent publication US20110059948A1, “QUINOLINE, NAPHTHALENE AND CONFORMATIONALLY CONSTRAINED QUINOLINE OR NAPHTHALENE DERIVATIVES AS ANTI-MYCOBACTERIAL AGENTS” (priority 2008, published 2011).

Key:
[1] = test system: clinical isolates resistant to one or more standard antitubercular drugs (MDR-TB strains); test: microbe, parasite or virus in culture; format: cell-based, Mycobacterium tuberculosis; details: for MIC M. tuberculosis Resistant (n = 10): clinical isolates, n = 10 strains tested
[2] = test system: clinical isolate MDR (BTB 08-072); test: microbe, parasite or virus in culture; format: cell-based, Mycobacterium tuberculosis; details: for MIC against MDR-TB (BTB 08-072), strain resistant to all front line drugs: agar dilution, Middlebrook 7H10; for MIC: Mycobacterium tuberculosis, read-out: MIC against MDR-TB (BTB 08-072), strain resistant to all front line drugs

Q: `CC(O)c1cc(F)ccc1Oc1nc2ccc(NC(=O)Nc3cccc([N+](=O)[O-])c3)cc2cc1Cc1ccccc1` (centres unmarked) [Example 31] was tested. Which “MIC M. tuberculosis Resistant (n = 10)” value [1] did it give?
A: <6.25 µg/mL

Q: And the “MIC against MDR-TB (BTB 08-072), strain resistant to all front line drugs” value (from here on “MIC against MDR-TB”) [2]?
A: >6.25 µg/mL

Q: Which MIC ([1]; Mycobacterium tuberculosis, read-out: MIC M. tuberculosis Resistant (n = 10)) does the source give for `NNC(=O)c1ccncc1` [Isoniazid, reference compound] here?
A: > 16 µg/mL

Q: And the MIC [2]?
A: > 16 µg/mL

Q: Which MIC [2] does the source give for `CO[C@H]1/C=C/O[C@@]2(C)Oc3c(C)c(O)c4c(O)c(c(/C=N/N5CCN(C)CC5)c(O)c4c3C2=O)NC(=O)/C(C)=C\C=C\[C@H](C)[C@H](O)[C@@H](C)[C@@H](O)[C@@H](C)[C@H](OC(C)=O)[C@@H]1C` [Refampin, Rifampicin, reference compound] here?
A: > 16 µg/mL

Q: Which “MIC M. tuberculosis Resistant (n = 10)” value [1] does the source give for `CC(c1cc(F)ccc1Oc1nc2ccc(-n3cc(-c4ccccc4)nn3)cc2cc1Cc1ccccc1)n1ccnc1` (centres unmarked) [Example 23] here?
A: <6.25 µg/mL

Q: What about the “MIC against MDR-TB” value [2] of the same molecule?
A: >6.25 µg/mL

Q: `COc1cccc(NC(=O)Nc2ccc3nc(Oc4ccc(F)cc4C(C)O)c(Cc4ccccc4)cc3c2)c1` (centres unmarked) [Example 26] was tested. Which “MIC M. tuberculosis Resistant (n = 10)” value [1] did it give?
A: <4.0 µg/mL

Q: And the “MIC against MDR-TB” value [2]?
A: >4.0 µg/mL

Q: How did the “MIC M. tuberculosis Resistant (n = 10)” value [1] turn out when `ON=C1c2ccccc2-c2c1c(N1CCN(c3ccccn3)CC1)nc1ccc(Br)cc21` [Example 134] was run?
A: <6.25 µg/mL

Q: And the “MIC against MDR-TB” value [2]?
A: >6.25 µg/mL
